These results are taken from ChEMBL document CHEMBL3588811, “Boehmenan, a lignan from Hibiscus ficulneus, showed Wnt signal inhibitory activity” (Bioorg Med Chem Lett, 2015).

The source made the active and inactive calls. The calls are words filed in the database; no cut-off is given here.

For one assay, the system named is SW480. The experiment in a line: Cytotoxicity against human Wnt-dependent SW480 cells after 24 hrs by fluorometric microculture cytotoxicity assay. Format: functional, cell-based. To be noted: SW480, 24 h.
In assay [1] the test system is HEK293. The assay can be described thus: Inhibition of Wnt/beta-catenin signaling in HEK293 cells stably transfected with TOP reporter gene assessed as TCF/beta-catenin transcriptional activity after 24 hrs by TOP activity/luciferase reporter gene assay. The assay is classed as cell-based. The following applies: Homo sapiens; for IC50: HEK293, 24 h. Background: In a reporter assay the amount or activity of a reporter protein is the signal.

The test system of another assay is RKO. The experiment in a line: Cytotoxicity against human Wnt-independent RKO cells after 24 hrs by fluorometric microculture cytotoxicity assay. The assay is classed as functional, cell-based.
The next assay concerns HCT-116. The assay can be described thus: Cytotoxicity against human Wnt-dependent HCT116 cells after 24 hrs by fluorometric microculture cytotoxicity assay. The assay is classed as functional, cell-based. The following applies: HCT-116, 24 h.
For assay [2], the system named is HEK293. The assay can be described thus: Cytotoxicity against human HEK293 cells after 24 hrs by fluorometric microculture cytotoxicity assay. Format: cell-based. The following applies: HEK293, 24 h.
Assay [3] is described as follows: Cytotoxicity against human Wnt-dependent DLD1 cells after 24 hrs by fluorometric microculture cytotoxicity assay. Format: functional, cell-based. To be noted: DLD-1, 24 h.
Assay [4] relates to HEK293. The experiment in a line: Inhibition of Wnt/beta-catenin signaling in HEK293 cells stably transfected with FOP reporter gene assessed as TCF/beta-catenin transcriptional activity after 24 hrs by FOP activity/luciferase reporter gene assay. Format: cell-based. To be noted: Homo sapiens.
Assay [5] deals with HEK293. The assay can be described thus: Reduction in beta-catenin level in human HEK293 cell cytosol stably transfected with TOP reporter gene at 1 to 20 uM after 24 hrs by Western blot analysis. Format: functional, cell-based.
Assay [6] relates to HEK293. The experiment in a line: Reduction in c-myc level in human HEK293 cell nucleus stably transfected with TOP reporter gene at 1 to 20 uM after 24 hrs by Western blot analysis. The assay is classed as functional, cell-based.
The test system of assay [7] is HEK293. The assay can be described thus: Reduction in beta-catenin level in human HEK293 cell nucleus stably transfected with TOP reporter gene at 1 to 20 uM after 24 hrs by Western blot analysis. The assay is classed as functional, cell-based.
For assay [8], the system named is HEK293. The experiment in a line: Reduction in beta-catenin level in human HEK293 cell nucleus stably transfected with TOP reporter gene at 20 uM after 24 hrs by Western blot analysis in presence of 1 uM MG132. The assay is classed as functional, cell-based.

On to `COc1cc(/C=C/C(=O)OCCCc2ccc(O[C@@H](COC(=O)/C=C/c3ccc(O)c(OC)c3)[C@@H](O)c3ccc(O)c(OC)c3)c(O)c2)ccc1O`, for which the IC50 in the assay on SW480 is more than 40 µM; in the assay with HEK293 [1] it was 4.5 µM; with RKO it was 23 µM; in the assay on HCT-116, more than 39 µM; in the assay on HEK293 [2], 24.2 µM; in [3] it was more than 40 µM. Further, the inhibition entry with HEK293 [1] is “Dose-dependent effect”. In the assay with HEK293 [4], the result was inactive.
In the case of `COc1cc(/C=C/C(=O)OCCCc2cc(OC)c3c(c2)[C@@H](COC(=O)/C=C/c2ccc(O)c(OC)c2)[C@H](c2cc(OC)c(O)c(OC)c2)O3)ccc1O`, the IC50 in the assay on SW480 is more than 40 µM; with HEK293 [1] it was 1.9 µM; with RKO it was more than 40 µM; in the assay on HCT-116, more than 40 µM; with HEK293 [2], 36.1 µM; in [3], more than 40 µM. Also, the inhibition entry with HEK293 [1] is “Dose-dependent effect”. In addition, the outcome with HEK293 [4] was inactive.
For the molecule `COc1cc(/C=C/C(=O)OCCCc2cc(OC)c3c(c2)[C@@H](COC(=O)/C=C/c2ccc(O)c(OC)c2)[C@H](c2ccc(O)c(OC)c2)O3)ccc1O`, the IC50 was more than 40 µM in the assay with SW480; 1 µM in the assay on HEK293 [1]; 25.4 µM with RKO; more than 22.8 µM in the assay on HCT-116; 30.3 µM with HEK293 [2]; more than 40 µM in [3]. For the same molecule, the inhibition result in the assay on HEK293 [1] is “Dose-dependent effect”. For the same molecule, the inhibition entry in the assay on HEK293 [5], with HEK293 [6] and in the assay on HEK293 [7] was “Active” each time. Besides, the inhibition result with HEK293 [8] was “inactive”. Also, the result in the assay with HEK293 [4] was inactive.
On to `COc1cc(/C=C/C(=O)OCCCc2ccc(O[C@@H](COC(=O)/C=C/c3ccc(O)c(OC)c3)[C@@H](O)c3ccc(O)c(OC)c3)c(OC)c2)ccc1O` (relative stereo), for which the IC50 in the assay with SW480 was more than 40 µM; in the assay on HEK293 [1] it was 6.3 µM; in the assay on RKO, 36.1 µM; in the assay on HCT-116, more than 40 µM; with HEK293 [2], 26.4 µM; in assay [3], more than 40 µM. In addition, in the assay on HEK293 [1], the inhibition result was “Dose-dependent effect”. Also, the outcome with HEK293 [4] was inactive.
On to `CC1(C)CC[C@]2(C(=O)O)CC[C@]3(COC(=O)/C=C/c4ccc(O)c(O)c4)C(=CC[C@@H]4[C@@]5(C)CC[C@H](OC(=O)/C=C/c6ccc(O)c(O)c6)C(C)(C)[C@@H]5CC[C@]43C)[C@@H]2C1`, for which the IC50 with SW480 was more than 40 µM; with HEK293 [1], 14.8 µM; in the assay with RKO, more than 40 µM; with HCT-116 it was more than 40 µM; in the assay with HEK293 [2] it was 29.3 µM; in [3], more than 40 µM.

As usually defined, the IC50 is the point on the concentration scale where inhibition reaches its midpoint.
